Where two headings read alike, the source gives them in different places.

The target of one assay is T1, C3a receptor (C3aR) (Homo sapiens, UniProt Q16581).
T1 construct: peripheral blood mononuclear cells were isolated from buffy coat (obtained from Australian Red Cross Blood Service, Kelvin Grove); endogenous in cells; host or cells: primary human monocyte-derived macrophages (HMDM) differentiated from CD14+ monocytes of donor buffy coat
T1 sequence (Q16581 1-482): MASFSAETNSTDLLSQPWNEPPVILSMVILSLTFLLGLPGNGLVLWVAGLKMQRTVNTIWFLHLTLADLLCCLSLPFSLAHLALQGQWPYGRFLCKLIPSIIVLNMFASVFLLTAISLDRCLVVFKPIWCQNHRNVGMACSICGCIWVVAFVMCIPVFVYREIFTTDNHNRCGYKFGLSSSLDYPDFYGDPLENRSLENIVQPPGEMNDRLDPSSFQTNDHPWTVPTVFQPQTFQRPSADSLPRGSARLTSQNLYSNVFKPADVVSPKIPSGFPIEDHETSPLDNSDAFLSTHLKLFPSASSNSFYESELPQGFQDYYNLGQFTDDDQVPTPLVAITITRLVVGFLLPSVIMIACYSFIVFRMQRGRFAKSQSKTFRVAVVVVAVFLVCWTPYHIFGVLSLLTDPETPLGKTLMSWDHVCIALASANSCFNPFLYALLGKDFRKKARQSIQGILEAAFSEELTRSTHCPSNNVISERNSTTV
The experiment in a line: Competitive binding with [^125I]-C3a in HMDM. As to conditions: for remaining activity at 20 µM: 1 h, read-out: %[^125I]-C3a binding; for -Log IC50: Table 14, binding affinity for C3aR on HMDM. The text has this: For HMDM, peripheral blood mononuclear cells were isolated from buffy coat (obtained from Australian Red Cross Blood Service, Kelvin Grove) using Ficoll-paque density centrifugation (GE Healthcare Bio-Science, Uppsala, Sweden). CD^14+ monocytes were positively selected using CD^14+ MACS magnetic beads (Miltenyi Biotech, Auburn, Calif., USA). […] Cells were harvested by gentle scraping in saline solution and replated for use on Day 7. […] Unbound radioactivity was removed by filtration through glass microfiber filters GF/B (Whatman Iner. […] The filter was washed 3 times with cold buffer (50 mM Tris-HCl) pH 7.4. […] The −log IC50 for each compound was calculated for separate experiments and express as an arithmetic mean standard error (SE). IC50 values were expressed as a geometric mean.

For another assay, the target named is T2, C3aR (Homo sapiens, UniProt Q16581).
T2 construct: peripheral blood mononuclear cells were isolated from buffy coat (obtained from Australian Red Cross Blood Service, Kelvin Grove); endogenous in cells; host or cells: primary human monocyte-derived macrophages (HMDM) differentiated from CD14+ monocytes of donor buffy coat
T2 sequence (Q16581 1-482): T1 sequence (Q16581 1-482)
The experiment in a line: Calcium mobilization assay in HMDM (agonist/antagonist activity). It is filed as cell-based. As to conditions: for Emax at 10 µM: read-out: % agonist; for EC50: read-out: EC50. Here is the method:
Harvested HMDM cells were washed with 0.9% NaCl solution by centrifugation at 2500 rpm for 5 min, followed by resuspension of the cell pellet with complete media. Cells were seeded at 5×10^4 cells/well in a 96-well black-wall, clear bottom plate (DKSH, Zurich), and left overnight to adhere at 37° C. On the day of the experiment, supernatant was removed and cells were incubated in dye loading buffer (Hank's Balanced Salt Solution (HBSS) with 4 μM Fluo-3, 25 μL pluronic acid, 1% fetal bovine serum (FBS) and 2.5 mM probenecid) for one hour at 37° C. Cells were then washed twice with HBSS and transferred to a Fluorostar spectrofluorimeter (BMG, Durham N.C.) for oxazole compound injection and fluorescence measurements.
Various compounds were examined in the calcium mobilization assay for agonist or antagonist activity compared to hC3a and to the known antagonist SB290157.
HMDMs were seeded into black-wall, clear bottom 96-well plates (Corning Incorporated, NY) at 50,000 cells/well and left to incubate at 37° C. with 5% CO2 overnight for cells to adhere. The medium was removed before being washed with the assay buffer (1×HBSS, 20 mM HEPES, 2.5 mM probenecid, pH 7.4). To each well was added 100 μL of dye-loading buffer made up of 12 mL calcium buffer, 1% FBS, 25 μL of Fluo-3 dye (final concentration of 4 μM) and 25 μL of 20% pluronic acid. The plate was covered in aluminium foil to protect the light-sensitive dye and left to incubate at 37° C. for 1 h. The dye-loading buffer was removed before the cells were washed with the assay buffer to remove excess loading dye. To each well was added 50 μL of fresh assay buffer before the plate was loaded into a FLIPR (Fluorescent Imaging Plate Reader) that can inject treatments and measure any calcium release. To generate agonist plots, calcium release was monitored for 300 seconds. To generate antagonist plots, calcium release was recorded for 900 seconds, which at the same time would allow incubation for the antagonists. After the initial incubation period, an agonist would be added and the response was recorded for 300 seconds. Intracellular release of calcium was recorded via fluorescence measurements at wavelength of 485 nm for excitation and 520 nm for emission.
For orientation: Calcium flux is commonly read through the fluorescence of an indicator in the cells.

Setting [1] is: Table 6, competitive binding with [^125I]-C3a, HMDM, read-out: IC50 (converted).
Where [2] appears, read: Table 9, Ca^2+ mobilization, HMDM.
The mark [3] stands for this setting: Table 8, HMDM, read-out: Receptor Binding Affinity ^125I IC50.
The mark [4] stands for this setting: Table 10, HMDM, read-out: Antagonist Activity Ca^2+ IC50.
The mark [5] stands for this setting: Table 6, competitive binding with [^125I]-C3a, HMDM.

Consider `COc1ccccc1CC(=O)N[C@@H](CC(C)C)c1nc(C(=O)N[C@@H](CCCNC(=N)N)C(=O)O)c(C)o1` [Compound 37, 2-Methoxy-phenylacetic acid-Leucine-5-Methyl-Oxazole-Arginine], for which the remaining activity at 20 µM at C3a receptor (C3aR) is 43%. Besides, the Emax at 10 µM at C3aR was determined as 81%.

For orientation: EC50 means the concentration giving half of the maximal effect. Regarding `CC(C)C[C@H](NC(=O)OC(C)(C)C)c1nc(C(=O)N[C@@H](CCONC(=N)N)C(=O)O)co1` [Compound 91, (S)-2-(2-((S)-1-((tert-butoxycarbonyl)amino)-3-methylbutyl)oxazole-4-carboxamido)-4-(guanidinooxy)butanoic acid], the IC50 on C3a receptor (C3aR) (setting [1]) was 93 nM. Also, on C3aR (setting [2]), the EC50 was 370 nM.

As for `N=C(N)NCCC[C@H](NC(=O)c1nc(C(c2ccccc2)c2ccccc2)no1)C(=O)O` [Compound 67, 3-Diphenylmethyl-1-oxa-2,4-diazole-5-carboxyl-Arginine-OH], the IC50 at C3a receptor (C3aR) (setting [3]) came out at 11 nM; at C3aR (setting [4]) it was 1300 nM. Also, the “-Log IC50” value on C3a receptor (C3aR) stood at 7.9.

Take `COc1cccc(CC(=O)N[C@@H](CC(C)C)c2nc(C(=O)N[C@@H](CCCNC(=N)N)C(=O)O)c(C)o2)c1` [Compound 38, 3-Methoxy-phenylacetic acid-Leucine-5-Methyl-Oxazole-Arginin]: at C3a receptor (C3aR), the remaining activity at 20 µM was determined as 41%. Moreover, the Emax at 10 µM at C3aR amounted to 87%.

As to `Cc1oc([C@H](CC(C)C)NC(=O)Cc2ccc(/N=N/c3ccccc3)cc2)nc1C(=O)N[C@@H](CCCNC(=N)N)C(=O)O` [Compound 47, Phenyl hydrazine-Benzeneacetic acid-Leucine-5-Methyl-Oxazole-Arginine], on C3a receptor (C3aR), the remaining activity at 20 µM was found to be 49%. Besides, the Emax at 10 µM on C3aR is 48%.

On to `Cc1[nH]c([C@H](CC(C)C)NC(=O)c2c[nH]c3ccccc23)nc1C(=O)N[C@@H](CCCNC(=N)N)C(=O)O` [Compound 79, 3-Indole carboxylic acid-Leucine-5-methyl-imidazole-Arginine-OH], for which the IC50 on C3a receptor (C3aR) (setting [1]) is 12 nM. On C3aR (setting [2]), the EC50 amounted to 15 nM.

Consider `Cc1oc([C@H](CC(C)C)NC(=O)c2cc3ccccc3[nH]2)nc1C(=O)N[C@@H](CCCNC(=N)N)C(=O)O` [Compound 28, Indole-2-carboxylic acid-Leucine-5-Methyl-Oxazole-Arginine], for which, at C3a receptor (C3aR), the remaining activity at 20 µM stood at 26%. The Emax at 10 µM on C3aR came out at 56%.

In the case of `Cc1oc([C@H](CC(C)C)NS(=O)(=O)c2ccccc2)nc1C(=O)N[C@@H](CCCNC(=N)N)C(=O)O` [Compound 40, Phenyl sulfonamide-Leucine-5-Methyl-Oxazole-Arginine], at C3a receptor (C3aR), the remaining activity at 20 µM is 44%. On C3aR, the Emax at 10 µM was found to be 103%.

In the case of `Cc1oc([C@H](CC(C)C)NC(=O)Cc2ccc(C(F)(F)F)cc2)nc1C(=O)N[C@@H](CCCNC(=N)N)C(=O)O` [Compound 36, 4-(Trifluoromethyl)-phenylacetic acid-Leucine-5-Methyl-Oxazole-Arginine], on C3a receptor (C3aR), the remaining activity at 20 µM turned out to be 61%. Moreover, the Emax at 10 µM at C3aR was 50%.

In the case of `N=C(N)NCCC[C@H](NC(=O)c1ccc(C(c2ccccc2)c2ccccc2)s1)C(=O)NS(=O)(=O)c1ccccc1` [Compound 94, (S)-5-benzhydryl-N-(5-guanidino-1-oxo-1-(phenylsulfonamido)pentan-2-yl)thiophene-2-carboxamide], the IC50 at C3a receptor (C3aR) (setting [1]) was 35 nM; on C3aR (Table 13, calcium release from HMDM, read-out: Antagonist Activity IC50), 300 nM.

For the compound `CC[C@H](C)[C@H](NC(=O)c1ccc(OC)cc1OC)c1nc(C(=O)N[C@@H](CCCNC(=N)N)C(=O)O)co1` [Compound 23, 2,4-Dimethoxybenzoic acid-isoleucine-oxazole-arginine-OH], the “pIC50 ± SEM” value at C3a receptor (C3aR) (setting [5]) amounted to 6.06 ± 0.13. Besides, at C3a receptor (C3aR) (setting [1]), the IC50 is 872 nM. Also, on C3aR (setting [2]), the “pEC50 ± SEM” value came out at 6.07 ± 0.13 and the EC50 was found to be 849 nM.

Turning to `CC[C@H](C)[C@H](NC(=O)c1cccc(OC)c1OC)c1nc(C(=O)N[C@@H](CCCNC(=N)N)C(=O)O)co1` [Compound 22, 2,3-dimethoxybenzoic acid-isoleucine-oxazole-arginine-OH], the “pIC50 ± SEM” value on C3a receptor (C3aR) (setting [5]) is recorded as 6.15 ± 0.14. The IC50 at C3a receptor (C3aR) (setting [1]) is 712 nM. For the same compound, at C3aR (setting [2]), the “EC50 (nM)” value is listed as “∞” and the “pEC50 ± SEM” value is given as “∞”.

`Cc1nc(C(c2ccccc2)c2ccccc2)oc1C(=O)N[C@@H](CCCNC(=N)N)C(=O)O` [Compound 58, 2-Diphenylmethyl-4-methyl oxazole-5-carboxyl-Arg-OH]: the IC50 at C3a receptor (C3aR) (setting [1]) was 606 nM; at C3a receptor (C3aR) (Table 6, competitive binding with [^125I]-C3a, HMDM, read-out: pIC50 ± SEM (converted)) it was 603 nM; at C3a receptor (C3aR) (setting [3]), 12 nM; on C3a receptor (C3aR) (Table 12, read-out: Receptor Binding Affinity IC50), 606 nM; on C3aR (setting [4]), 2900 nM. In addition, on C3a receptor (C3aR), the “-Log IC50” value is reported as 7.0. The “Apparent Agonist Activity pEC50 ± SE (symbol)” value on C3aR (Table 12) is given as “φ (compound showed no agonist activity up to 100 μM.)”.

`CC[C@H](C)[C@H](NC(=O)Cc1c[nH]c2ccccc12)c1nc(C(=O)N[C@@H](CCCNC(=N)N)C(=O)O)co1` [Compound 9, 2-(1H-indol-3-yl)acetic acid-Isoleucine-Oxazole-Arginine-OH]: on C3a receptor (C3aR) (setting [5]), the “pIC50 ± SEM” value stood at 6.82 ± 0.10. Moreover, the IC50 on C3a receptor (C3aR) (setting [1]) is 152 nM. Also, at C3aR (setting [2]), the “pEC50 ± SEM” value is 7.14 ± 0.19 and the EC50 came to 73 nM.

For the compound `Cc1oc([C@H](CC(C)C)NC(=O)CC(C)(C)C)nc1C(=O)N[C@@H](CCCNC(=N)N)C(=O)O` [Compound 34, 3,3-Dimethylbutanoic acid-Leucine-5-Methyl-Oxazole-Arginine], the remaining activity at 20 µM on C3a receptor (C3aR) is 44%. On C3aR, the Emax at 10 µM stood at 70%.

Take `N=C(N)NCCC[C@H](NC(=O)c1noc(C(c2ccccc2)c2ccccc2)n1)C(=O)O` [Compound 68, 5-Diphenylmethyl-1-oxa-2,4-diazole-3-carboxyl-Arginine-OH]: the IC50 at C3a receptor (C3aR) (setting [3]) worked out at 447 nM; at C3aR (setting [4]), 1200 nM.

Turning to `CC(C)C[C@H](NC(=O)OC(C)(C)C)c1nc(C(=O)N[C@@H](CCCN/C(N)=N\C#N)C(=O)O)co1` [Compound 90, (S)-2-(2-((S)-1-((tert-butoxycarbonyl)amino)-3-methylbutyl)oxazole-4-carboxamido)-5-((Z)-2-cyanoguanidino)pentanoic acid], on C3a receptor (C3aR) (setting [1]), the IC50 is 41 nM. The EC50 at C3aR (setting [2]) was 250 nM.

Take `Cc1nc(C(c2ccccc2)c2ccccc2)n(C)c1C(=O)N[C@@H](CCCNC(=N)N)C(=O)O` [Compound 98, 2-Benzhydryl-1,4-Dimethyl imidazole-5-carboxyl-Arginine]: the IC50 at C3a receptor (C3aR) (setting [1]) was 31 nM. For the same compound, the EC50 at C3aR (setting [2]) was 40 nM.

Turning to `COc1ccc(OC)c(CC(=O)N[C@@H](CC(C)C)c2nc(C(=O)N[C@@H](CCCNC(=N)N)C(=O)O)c(C)o2)c1` [Compound 44, 2,5-Dimethoxy-phenyl acetic acid-Leucine-5-Methyl-Oxazole-Arginine], on C3a receptor (C3aR), the remaining activity at 20 µM is 42%. For the same compound, at C3aR, the Emax at 10 µM came to 69%.
